# Laboratory results: PMC1977485, “The renal effects of N10-propargyl-5,8-dideazafolic acid (CB3717) and a non-nephrotoxic analogue ICI D1694, in mice” (British Journal of Cancer, 1991)
# Tests used:
# C57/DBA2 mice [1] = assay: GFR by 14C-inulin clearance, single timed plasma sample, in drug treated mice; format: in vivo
# Excerpt: Br .Cncr(91) 4 3-88?McilnPesLd,19 The renal effects of N1l-propargyl-5,8-dideazafolic acid (CB3717) and a non-nephrotoxic analogue ICI D1694, in mice D.I. Jodrell', D.R. Newelll,*, S.E. Morgan', S. Clinton2, J.P.M. Bensted2, L.R. Hughes3 & A.H. Calvertl,* 'Clinical Pharmacology Team, Drug Development Section, and 2Histopathology Section, Institute of Cancer Research, 15 Cotswold Road, Sutton, Surrey SM2 SNG; and 3ICI Pharmaceuticals, Mereside, Alderley Park, Macclesfield, Cheshire SKIO 4TG, UK. Summary N-(5-[N-(3,4-dihydro-2-methyl-4-oxoquinazolin-6-ylmethyl)-N-methylamino]-2-thenoyl)-L-glutamic acid (ICI D1694) is an analogue of the thymidylate synthase inhibitor, N'?-propargyl-5,8-dideazafolic acid (CB3717). […] Previous studies have shown ICI D1694 to be non-toxic to the kidney following a single administration but its renal effects after chronic administration are unknown. […] The '4C-inulin clearance assay developed was used to show a linear relationship between CB3717 dosage and renal damage (r=-0.989) following a single bolus dose (50-200mgkg-'), in mice. CB3717-induced renal damage is persistent (>6 weeks) and renal scarring was noted. […] However, the clinical use of CB3717 was limited by its nephrotoxicity, which was observ- ed in Phase I studies of both weekly (Vest et al., 1988) and 3-weekly administration schedules (Calvert et al., 1986; Sessa et al., 1988). Renal toxicity manifested primarily as a reduc- tion in glomerular filtration rate (GFR). However, tubular damage was also identified by the measurement of the urin- ary enzymes, N-acetyl glucosaminidase (NAG) and leucine aminopeptidase (LAP). […] In addition, urinary NAG and LAP levels were elevated in 50% of patients studied, although this elevation was not dose related (Calvert et al., 1986). CB3717-induced nephrotoxicity was thought to be due to the compound's relative insolubility at acid pH. […] The plasma concentrations of urea and creatinine are com- monly measured to assess renal function during toxicological screening of new drugs. […]
# [2] = set-up: method as in Newell et al., 1986; conditions: radiolabelled CB3717, mice, 23 days after administration; ref Newell et al., 1986; cited from earlier work
# C57/DBA2 mice [3] = assay: Plasma urea concentration; format: in vivo; conditions: single dose 100 mg kg-1, at 9, 10, 11 and 14 weeks, small number of animals
# Excerpt: Br .Cncr(91) 4 3-88?McilnPesLd,19 The renal effects of N1l-propargyl-5,8-dideazafolic acid (CB3717) and a non-nephrotoxic analogue ICI D1694, in mice D.I. Jodrell', D.R. Newelll,*, S.E. Morgan', S. Clinton2, J.P.M. Bensted2, L.R. Hughes3 & A.H. Calvertl,* 'Clinical Pharmacology Team, Drug Development Section, and 2Histopathology Section, Institute of Cancer Research, 15 Cotswold Road, Sutton, Surrey SM2 SNG; and 3ICI Pharmaceuticals, Mereside, Alderley Park, Macclesfield, Cheshire SKIO 4TG, UK. Summary N-(5-[N-(3,4-dihydro-2-methyl-4-oxoquinazolin-6-ylmethyl)-N-methylamino]-2-thenoyl)-L-glutamic acid (ICI D1694) is an analogue of the thymidylate synthase inhibitor, N'?-propargyl-5,8-dideazafolic acid (CB3717). […] Previous studies have shown ICI D1694 to be non-toxic to the kidney following a single administration but its renal effects after chronic administration are unknown. […] The '4C-inulin clearance assay developed was used to show a linear relationship between CB3717 dosage and renal damage (r=-0.989) following a single bolus dose (50-200mgkg-'), in mice. CB3717-induced renal damage is persistent (>6 weeks) and renal scarring was noted. […] The plasma concentrations of urea and creatinine are com- monly measured to assess renal function during toxicological screening of new drugs. […]
# patients = conditions: cited from earlier work
# C57/DBA2 mice [4] = assay: Histological examination of the kidney (H&E); format: in vivo
# Excerpt: Br .Cncr(91) 4 3-88?McilnPesLd,19 The renal effects of N1l-propargyl-5,8-dideazafolic acid (CB3717) and a non-nephrotoxic analogue ICI D1694, in mice D.I. Jodrell', D.R. Newelll,*, S.E. Morgan', S. Clinton2, J.P.M. Bensted2, L.R. Hughes3 & A.H. Calvertl,* 'Clinical Pharmacology Team, Drug Development Section, and 2Histopathology Section, Institute of Cancer Research, 15 Cotswold Road, Sutton, Surrey SM2 SNG; and 3ICI Pharmaceuticals, Mereside, Alderley Park, Macclesfield, Cheshire SKIO 4TG, UK. Summary N-(5-[N-(3,4-dihydro-2-methyl-4-oxoquinazolin-6-ylmethyl)-N-methylamino]-2-thenoyl)-L-glutamic acid (ICI D1694) is an analogue of the thymidylate synthase inhibitor, N'?-propargyl-5,8-dideazafolic acid (CB3717). […] Previous studies have shown ICI D1694 to be non-toxic to the kidney following a single administration but its renal effects after chronic administration are unknown. […] The '4C-inulin clearance assay developed was used to show a linear relationship between CB3717 dosage and renal damage (r=-0.989) following a single bolus dose (50-200mgkg-'), in mice. CB3717-induced renal damage is persistent (>6 weeks) and renal scarring was noted. […] However, the clinical use of CB3717 was limited by its nephrotoxicity, which was observ- ed in Phase I studies of both weekly (Vest et al., 1988) and 3-weekly administration schedules (Calvert et al., 1986; Sessa et al., 1988). Renal toxicity manifested primarily as a reduc- tion in glomerular filtration rate (GFR). However, tubular damage was also identified by the measurement of the urin- ary enzymes, N-acetyl glucosaminidase (NAG) and leucine aminopeptidase (LAP). […] In addition, urinary NAG and LAP levels were elevated in 50% of patients studied, although this elevation was not dose related (Calvert et al., 1986). CB3717-induced nephrotoxicity was thought to be due to the compound's relative insolubility at acid pH. […] To circumvent toxicity related to drug precipitation in the kidney, a series of more soluble analogues of CB3717 have been synthesised. […] One such analogue, N-(5-[N-(3,4-dihydro-2- methyl- 4 -oxoquinazolin- 6 -ylmethyl)- N -methylamino]-2-the- noyl) L-glutamic acid (ICI D1694, Figure lii) has been selected for preclinical development (Jackman et al., 1991). The plasma concentrations of urea and creatinine are com- monly measured to assess renal function during toxicological screening of new drugs. However, these parameters are rela- tively insensitive, because, in mice, a rise in plasma urea and creatinine concentration only occurs following the loss of 70-75% of functional renal mass (Everett & Harrison, 1983). Specificity is also poor because an elevation in plasma urea may be caused by 'pre-renal' (increased protein catabolism, gastric or intestinal bleeding and dehydration) or 'post-renal' (obstruction to renal outflow) causes, as well as parenchymal renal damage (Everett & Harrison, 1983). […] In man, the measurement of GFR has become accepted as a routine method for the assessment of renal function. The classical technique using inulin, which is solely cleared from the plasma by glomerular filtration, involves its constant infusion with simultaneous urine collec- tion (Jones, 1985). However, in mice, a constant infusion of inulin and simultaneous urine collection would require anaes- thesia or rigid restraint and complete emptying of the bladder before and at completion of the test (Ragan, 1989). Therefore a b Correspondence: D.I. Jodrell, Clinical Pharmacology, Drug Develop- ment Section, E Block, Institute of Cancer Research, 15 Cotswold Road, Sutton, Surrey SM2 5NG, UK. *Present address: Cancer Research Unit, The Medical School, Uni- versity of Newcastle upon Tyne, Framlington Place, Newcastle upon Tyne NE2 4HH, UK. Received 5 June 1991; and in revised form 19 July 1991. […]
# [5] = compared with CB3717; cited from earlier work
# mice = test system: mice; set-up: method as in Jodrell et al., 1990; conditions: single bolus doses of 500 mg kg-1; ref Jodrell et al., 1990; cited from earlier work
# [6] = 100 mg kg-1 weekly for 6 weeks, 1 week after final dose
smiles,measurement,setting,value
"C#CCN(Cc1ccc2nc(N)[nH]c(=O)c2c1)c1ccc(C(=O)N[C@@H](CCC(=O)O)C(=O)O)cc1 [CB3717, N10-propargyl-5,8-dideazafolic acid]",reduction in GFR,"C57/DBA2 mice [1]; 200 mg kg-1 single ip bolus, 5 days after (Figure 4)",> 70%
same,persistence of renal damage,C57/DBA2 mice [1]; single dose 100 mg kg-1,> 6 weeks
same,GFR,"C57/DBA2 mice [1]; single dose of 10 mg kg-1 (30 mg m-2), 5 days after",normal
same,radioactivity in the kidneys,[2],still detectable
same,plasma biochemistry (urea and creatinine concentrations),C57/DBA2 mice [3],normal
same,courses with reductions in GFR (creatinine clearance) of >20%,"patients; 6/17 courses at 400 mg m2 despite alkalinisation of the urine, ref Sessa et al., 1988",35%
same,lowest dose causing renal damage (reduction in GFR),"patients; bolus injection at weekly intervals, in man, ref Vest et al., 1988",10 mg m2
same,patients with elevated urinary NAG and LAP levels,"patients; patients studied, not dose related, ref Calvert et al., 1986",50%
same,patients with >20% reduction in GFR,"patients; seven of 12 patients receiving more than 400 mg m2, ref Calvert et al., 1986",58%
same,kidney histology,C57/DBA2 mice [4]; [6],Cortical scarring with tubular dilatation and amorphous casts
same,kidney histology,"C57/DBA2 mice [4]; single dose 10 mg kg-1, 5 days after",normal
same,kidney histology,"C57/DBA2 mice [4]; single dose 50 mg kg-1, 5 days after",focal tubular dilatation
same,kidney histology,"C57/DBA2 mice [4]; single dose 100 mg kg-1, 14 weeks, small number of animals",cortical scarring and the presence of amorphous casts
same,kidney histology,"C57/DBA2 mice [4]; single dose 100 mg kg-1, 24 h after administration",tubular dilatation
same,kidney histology,"C57/DBA2 mice [4]; single dose 100 mg kg-1, day 3",focal tubular dilatation
same,kidney histology,"C57/DBA2 mice [4]; single dose 100 mg kg-1, day 20",glomerular atrophy
same,kidney histology,"C57/DBA2 mice [4]; single dose 100 mg kg-1, days 5 and 7",Tubular dilatation persisted through days 5 and 7 with increased tubular mitotic activity
same,kidney histology,"C57/DBA2 mice [4]; single dose 100 mg kg-1, six weeks (42 days)",deeply pitted scars
"Cc1nc2ccc(CN(C)c3ccc(C(=O)N[C@@H](CCC(=O)O)C(=O)O)s3)cc2c(=O)[nH]1 [ICI D1694, N-(5-[N-(3,4-dihydro-2-methyl-4-oxoquinazolin-6-ylmethyl)-N-methylamino]-2-thenoyl)-L-glutamic acid]",water solubility,[5],more water soluble
same,acute renal toxicity,mice,absence of acute renal toxicity
same,kidney histology,C57/DBA2 mice [4]; [6],no histological evidence of renal damage
same,kidney histology,"C57/DBA2 mice [4]; 250 mg kg-1 weekly for 6 weeks, 1 week after final dose",normal in 5/5 mice
